Measured values from ChEMBL document CHEMBL4138157, “Synthesis, antibacterial properties and 2D-QSAR studies of quinolone-triazole conjugates” (2018).
In brackets after ≈: the same amount, converted by molar mass.

Experiments:
[1] = test system: Pseudomonas aeruginosa; experiment: Antibacterial activity against Pseudomonas aeruginosa ATCC 27853 after 18 hrs by agar dilution method; assay type: functional; details: ATCC 27853, 18 h
[2] = test system: Salmonella typhi; experiment: Antibacterial activity against Salmonella typhi ATCC 19430 after 18 hrs by agar dilution method; assay type: functional, Salmonella enterica subsp. enterica serovar Typhi; details: Salmonella enterica, ATCC 19430, 18 h
[3] = test system: Escherichia coli; experiment: Antibacterial activity against Escherichia coli ATCC 25922 after 18 hrs by agar dilution method; assay type: functional; details: ATCC 25922, 18 h
[4] = test system: Streptococcus pyogenes; experiment: Antibacterial activity against Streptococcus pyogenes ATCC 19615 after 18 hrs by agar dilution method; assay type: functional; details: ATCC 19615, 18 h

SMILES	MIC [1]	MIC [2]	MIC [3]	MIC [4]
C#CCN1CCN(c2ncc3c(=O)c(C(=O)O)cn(CC)c3n2)CC1	> 3000 µM	> 3000 µM	750 µM (≈ 256 µg/mL)	750 µM (≈ 256 µg/mL)
O=C(O)c1cn(C2CC2)c2cc(N3CCN(Cc4cn([C@@H](Cc5ccccc5)C(=O)O)nn4)CC3)c(F)cc2c1=O	2230 µM (≈ 1250 µg/mL)	2230 µM (≈ 1250 µg/mL)	–	2230 µM (≈ 1250 µg/mL)
O=C(O)c1cn(C2CC2)c2cc(N3CCN(Cc4cn(-c5ccccc5)nn4)CC3)c(F)cc2c1=O	> 2100 µM	0.2 µM (≈ 0.0977 µg/mL)	0.2 µM (≈ 0.0977 µg/mL)	16.4 µM (≈ 8.01 µg/mL)
CCn1cc(C(=O)O)c(=O)c2cc(F)c(N3CCN(Cc4cn([C@@H](CC(C)C)C(=O)O)nn4)CC3)cc21	1210 µM (≈ 625 µg/mL)	2430 µM (≈ 1250 µg/mL)	–	1210 µM (≈ 625 µg/mL)
CCn1cc(C(=O)O)c(=O)c2cc(F)c(N3CCN(Cc4cn(-c5ccc([N+](=O)[O-])cc5)nn4)CC3)cc21	> 1960 µM	0.2 µM (≈ 0.104 µg/mL)	0.2 µM (≈ 0.104 µg/mL)	15.3 µM (≈ 7.98 µg/mL)
CCn1cc(C(=O)O)c(=O)c2cc(F)c(N3CCN(Cc4cn(CC(=O)N[C@@H](Cc5ccccc5)C(=O)O)nn4)CC3)cc21	2060 µM (≈ 1250 µg/mL)	2060 µM (≈ 1250 µg/mL)	–	1030 µM (≈ 625 µg/mL)
C#CCN1CCN(c2cc3c(cc2F)c(=O)c(C(=O)O)cn3CC)CC1	> 2870 µM	1430 µM (≈ 512 µg/mL)	> 2870 µM	1430 µM (≈ 512 µg/mL)
CCn1cc(C(=O)O)c(=O)c2cnc(N3CCN(Cc4cn([C@@H](C)C(=O)O)nn4)CC3)nc21	1370 µM (≈ 625 µg/mL)	2740 µM (≈ 1250 µg/mL)	–	1370 µM (≈ 625 µg/mL)
CC(C)[C@@H](C(=O)O)n1cc(CN2CCN(c3cc4c(cc3F)c(=O)c(C(=O)O)cn4C3CC3)CC2)nn1	2440 µM (≈ 1250 µg/mL)	2440 µM (≈ 1250 µg/mL)	–	2440 µM (≈ 1250 µg/mL)
CCn1cc(C(=O)O)c(=O)c2cc(F)c(N3CCN(Cc4cn([C@H](C(=O)O)C(C)C)nn4)CC3)cc21	2500 µM (≈ 1250 µg/mL)	2500 µM (≈ 1250 µg/mL)	–	1250 µM (≈ 625 µg/mL)
CC(C)C[C@@H](C(=O)O)n1cc(CN2CCN(c3cc4c(cc3F)c(=O)c(C(=O)O)cn4C3CC3)CC2)nn1	2370 µM (≈ 1250 µg/mL)	2370 µM (≈ 1250 µg/mL)	–	2370 µM (≈ 1250 µg/mL)
CCn1cc(C(=O)O)c(=O)c2cnc(N3CCN(Cc4cn(-c5ccc([N+](=O)[O-])cc5)nn4)CC3)nc21	1010 µM (≈ 512 µg/mL)	0.2 µM (≈ 0.101 µg/mL)	0.2 µM (≈ 0.101 µg/mL)	127 µM (≈ 64 µg/mL)
CCn1cc(C(=O)O)c(=O)c2cnc(N3CCN(Cc4cn(CC(=O)N[C@@H](Cc5ccccc5)C(=O)O)nn4)CC3)nc21	2120 µM (≈ 1250 µg/mL)	212 µM (≈ 125 µg/mL)	–	2120 µM (≈ 1250 µg/mL)
CCn1cc(C(=O)O)c(=O)c2cc(F)c(N3CCN(Cc4cn(-c5ccc(C)cc5)nn4)CC3)cc21	> 2090 µM	32.6 µM (≈ 16 µg/mL)	0.2 µM (≈ 0.0981 µg/mL)	2 µM (≈ 0.981 µg/mL)
CCn1cc(C(=O)O)c(=O)c2cnc(N3CCN(Cc4cn(-c5ccccc5)nn4)CC3)nc21	1110 µM (≈ 512 µg/mL)	0.3 µM (≈ 0.138 µg/mL)	0.3 µM (≈ 0.138 µg/mL)	556 µM (≈ 256 µg/mL)
O=C(Cn1cc(CN2CCN(c3cc4c(cc3F)c(=O)c(C(=O)O)cn4C3CC3)CC2)nn1)N[C@@H](Cc1ccccc1)C(=O)O	2020 µM (≈ 1250 µg/mL)	2020 µM (≈ 1250 µg/mL)	–	2020 µM (≈ 1250 µg/mL)
C[C@@H](C(=O)O)n1cc(CN2CCN(c3cc4c(cc3F)c(=O)c(C(=O)O)cn4C3CC3)CC2)nn1	2580 µM (≈ 1250 µg/mL)	2580 µM (≈ 1250 µg/mL)	–	2580 µM (≈ 1250 µg/mL)
C#CCN1CCN(c2cc3c(cc2F)c(=O)c(C(=O)O)cn3C2CC2)CC1	> 2770 µM	1390 µM (≈ 512 µg/mL)	> 2770 µM	> 2770 µM
O=C(O)c1cn(C2CC2)c2cc(N3CCNCC3)c(F)cc2c1=O [CIPROFLOXACIN]	14.5 µM (≈ 4.8 µg/mL)	7.2 µM (≈ 2.39 µg/mL)	–	3770 µM (≈ 1250 µg/mL)
CCn1cc(C(=O)O)c(=O)c2cc(F)c(N3CCNCC3)cc21 [NORFLOXACIN]	15 µM (≈ 4.79 µg/mL)	7.5 µM (≈ 2.4 µg/mL)	–	1960 µM (≈ 625 µg/mL)
CCn1cc(C(=O)O)c(=O)c2cnc(N3CCNCC3)nc21 [PIPEMIDIC ACID]	64.3 µM (≈ 19.5 µg/mL)	7.9 µM (≈ 2.4 µg/mL)	–	2060 µM (≈ 625 µg/mL)
